Tested on: rabbit skeletal myofibrils (approximately 90% fast fibers)
Assay: Activation of fast skeletal myofibrils (PUMA coupled-enzyme ATPase assay, AC1.4)
Type: biochemical
Details: concentration at which the compound increased enzymatic activity by 40%, calcium at pCa25

Row | SMILES | Mean AC1.4 (Table 3) | Mean AC1.4 (Table 2)
1 | Cc1ccsc1-c1nnc(NC[C@]2(c3ncccc3F)C[C@H](F)C2)s1 [N-(((trans)-3-fluoro-1-(3-fluoropyridin-2-yl)cyclobutyl)methyl)-5-(3-methylthiophen-2-yl)-1,3,4-thiadiazol-2-amine] | B (B=1-10 uM) | 
2 | Cc1ccc(-c2nnc(NC[C@]3(c4ncccc4F)C[C@H](F)C3)s2)s1 [N-(((trans)-3-fluoro-1-(3-fluoropyridin-2-yl)cyclobutyl)methyl)-5-(5-methylthiophen-2-yl)-1,3,4-thiadiazol-2-amine] | B (B=1-10 uM) | 
3 | CC(C)(CNc1nc(CCCNC(=O)CO)ns1)c1ccc(F)cc1 [N-[3-(5-{[2-(4-fluorophenyl)-2-methylpropyl]amino}(1,2,4-thiadiazol-3-yl))propyl]-2-hydroxyacetamide] |  | B (B=1-10 uM)
4 | COC(=O)NCCCc1nsc(NCC(C)(C)c2ccc(F)cc2)n1 [N-[3-(5-{[2-(4-fluorophenyl)-2-methylpropyl]amino}(1,2,4-thiadiazol-3-yl))propyl]methoxycarboxamide] |  | B (B=1-10 uM)
5 | COC(=O)NCc1nsc(NCC(C)(C)c2ccc(F)cc2)n1 [N-[(5-{[2-(4-fluorophenyl)-2-methylpropyl]amino}(1,2,4-thiadiazol-3-yl))methyl]methoxycarboxamide] |  | B (B=1-10 uM)
6 | CC(=O)NCc1nsc(NCC(C)(C)c2ccc(F)cc2)n1 [N-[(5-{[2-(4-fluorophenyl)-2-methylpropyl]amino}-1,2,4-thiadiazol-3-yl)methyl]acetamide] |  | C (C=10-20 uM)
7 | COc1cccc(Cc2nsc(NCCc3ccc(Cl)cc3Cl)n2)c1 [[2-(2,4-dichlorophenyl)ethyl]{3-[(3-methoxyphenyl)methyl](1,2,4-thiadiazol-5-yl)}amine] |  | C (C=10-20 uM)
8 | Fc1ccc(Cc2nsc(NCCc3ccccc3Cl)n2)cc1 [[2-(2-chlorophenyl)ethyl]{3-[(4-fluorophenyl)methyl](1,2,4-thiadiazol-5-yl)}amine] |  | D (D=>20 uM)
9 | Clc1ccc(Cc2nsc(NCCc3ccc(Cl)c(Cl)c3)n2)cc1 [[2-(3,4-dichlorophenyl)ethyl]{3-[(4-chlorophenyl)methyl](1,2,4-thiadiazol-5-yl)}amine] |  | C (C=10-20 uM)
10 | COc1cccc(Cc2nsc(NCCc3ccc(F)c(F)c3)n2)c1 [[2-(3,4-difluorophenyl)ethyl]{3-[(3-methoxyphenyl)methyl](1,2,4-thiadiazol-5-yl)}amine] |  | B (B=1-10 uM)
11 | Fc1ccc(Cc2nsc(NCCc3ccc(F)c(F)c3)n2)cc1 [[2-(3,4-difluorophenyl)ethyl]{3-[(4-fluorophenyl)methyl](1,2,4-thiadiazol-5-yl)}amine] |  | C (C=10-20 uM)
12 | Clc1ccc(Cc2nsc(NCCc3cccc(Cl)c3)n2)cc1 [[2-(3-chlorophenyl)ethyl]{3-[(4-chlorophenyl)methyl](1,2,4-thiadiazol-5-yl)}amine] |  | D (D=>20 uM)
13 | Nc1ccc(CCNc2nc(Cc3ccc(F)cc3)ns2)cc1 [[2-(4-aminophenyl)ethyl]{3-[(4-fluorophenyl)methyl](1,2,4-thiadiazol-5-yl)}amine] |  | D (D=>20 uM)
14 | CC(C)Cc1nsc(NCC(C)(C)c2ccc(Cl)cc2)n1 [[2-(4-chlorophenyl)-2-methylpropyl][3-(2-methylpropyl)(1,2,4-thiadiazol-5-yl)]amine] |  | B (B=1-10 uM)
15 | COc1cccc(Cc2nsc(NCC(C)(C)c3ccc(Cl)cc3)n2)c1 [[2-(4-chlorophenyl)-2-methylpropyl]{3-[(3-methoxyphenyl)methyl](1,2,4-thiadiazol-5-yl)}amine] |  | A (A=<1 uM)
16 | CC(C)(CNc1nc(Cc2ccc(F)cc2)ns1)c1ccc(Cl)cc1 [[2-(4-chlorophenyl)-2-methylpropyl]{3-[(4-fluorophenyl)methyl](1,2,4-thiadiazol-5-yl)}amine] |  | A (A=<1 uM)
17 | COc1ccc(Cc2nsc(NCC(C)(C)c3ccc(Cl)cc3)n2)cc1 [[2-(4-chlorophenyl)-2-methylpropyl]{3-[(4-methoxyphenyl)methyl](1,2,4-thiadiazol-5-yl)}amine] |  | A (A=<1 uM)
18 | Cc1ccc(Cc2nsc(NCCc3ccc(Cl)cc3)n2)cc1 [[2-(4-chlorophenyl)ethyl]{3-[(4-methylphenyl)methyl](1,2,4-thiadiazol-5-yl)}amine] |  | C (C=10-20 uM)
19 | CC(CNc1nc(Cc2ccc(F)cc2)ns1)c1ccc(Cl)cc1 (stereo not drawn) [[2-(4-chlorophenyl)propyl]{3-[(4-fluorophenyl)methyl](1,2,4-thiadiazol-5-yl)}amine] |  | B (B=1-10 uM)

Second part, the compound after the results:

Row | Mean AC1.4 (Table 3) | Mean AC1.4 (Table 2) | SMILES
20 | A (A=<1 uM) |  | Fc1ccccc1-c1nnc(NC[C@]2(c3ncccc3F)C[C@H](F)C2)s1 [N-((3-fluoro-1-(3-fluoropyridin-2-yl)cyclobutyl)methyl)-5-(2-fluorophenyl)-1,3,4-thiadiazol-2-amine]
21 | B (B=1-10 uM) |  | CSc1ncc(C)c(-c2nnc(NC[C@]3(c4ncccc4F)C[C@H](F)C3)s2)n1 [N-((3-fluoro-1-(3-fluoropyridin-2-yl)cyclobutyl)methyl)-5-(5-methyl-2-(methylthio)pyrimidin-4-yl)-1,3,4-thiadiazol-2-amine]
22 | C (C=10-20 uM) |  | Fc1cccnc1[C@]1(CNc2nnc(-c3ccon3)s2)C[C@@H](F)C1 [N-((3-fluoro-1-(3-fluoropyridin-2-yl)cyclobutyl)methyl)-5-(isoxazol-3-yl)-1,3,4-thiadiazol-2-amine]
23 | B (B=1-10 uM) |  | Fc1cccnc1[C@]1(CNc2nnc(-c3ccccn3)s2)C[C@@H](F)C1 [N-((3-fluoro-1-(3-fluoropyridin-2-yl)cyclobutyl)methyl)-5-(pyridin-2-yl)-1,3,4-thiadiazol-2-amine]
24 | B (B=1-10 uM) |  | Cc1ccsc1-c1nnc(NC[C@]2(c3ncccc3F)C[C@@H](F)C2)s1 [N-(((cis)-3-fluoro-1-(3-fluoropyridin-2-yl)cyclobutyl)methyl)-5-(3-methylthiophen-2-yl)-1,3,4-thiadiazol-2-amine]
25 | D (D=>20 uM) |  | Cc1ccc(-c2nnc(NC[C@]3(c4ncccc4F)C[C@@H](F)C3)s2)s1 [N-(((cis)-3-fluoro-1-(3-fluoropyridin-2-yl)cyclobutyl)methyl)-5-(5-methylthiophen-2-yl)-1,3,4-thiadiazol-2-amine]
26 |  | C (C=10-20 uM) | CC(=O)NCCCc1nsc(NCC(C)(C)c2ccc(F)cc2)n1 [N-[3-(5-{[2-(4-fluorophenyl)-2-methylpropyl]amino}-1,2,4-thiadiazol-3-yl)propyl]acetamide]
27 |  | B (B=1-10 uM) | CC(C)(CNc1nc(CNC(=O)CO)ns1)c1ccc(F)cc1 [N-[(5-{[2-(4-fluorophenyl)-2-methylpropyl]amino}(1,2,4-thiadiazol-3-yl))methyl]-2-hydroxyacetamide]
28 |  | D (D=>20 uM) | Cc1ccc(Cc2nsc(NCCc3ccc(Cl)cc3Cl)n2)cc1 [[2-(2,4-dichlorophenyl)ethyl]{3-[(4-methylphenyl)methyl](1,2,4-thiadiazol-5-yl)}amine]
29 |  | D (D=>20 uM) | Cc1ccc(Cc2nsc(NCCc3c(Cl)cccc3Cl)n2)cc1 [[2-(2,6-dichlorophenyl)ethyl]{3-[(4-methylphenyl)methyl](1,2,4-thiadiazol-5-yl)}amine]
30 |  | D (D=>20 uM) | COc1cccc(Cc2nsc(NCCc3ccccc3Cl)n2)c1 [[2-(2-chlorophenyl)ethyl]{3-[(3-methoxyphenyl)methyl](1,2,4-thiadiazol-5-yl)}amine]
31 |  | D (D=>20 uM) | Cc1ccc(Cc2nsc(NCCc3ccccc3Cl)n2)cc1 [[2-(2-chlorophenyl)ethyl]{3-[(4-methylphenyl)methyl](1,2,4-thiadiazol-5-yl)}amine]
32 |  | B (B=1-10 uM) | COc1cccc(Cc2nsc(NCCc3ccc(Cl)c(Cl)c3)n2)c1 [[2-(3,4-dichlorophenyl)ethyl]{3-[(3-methoxyphenyl)methyl](1,2,4-thiadiazol-5-yl)}amine]
33 |  | B (B=1-10 uM) | Cc1ccc(Cc2nsc(NCCc3ccc(Cl)c(Cl)c3)n2)cc1 [[2-(3,4-dichlorophenyl)ethyl]{3-[(4-methylphenyl)methyl](1,2,4-thiadiazol-5-yl)}amine]
34 |  | D (D=>20 uM) | COc1cccc(Cc2nsc(NCCc3cc(F)cc(F)c3)n2)c1 [[2-(3,5-difluorophenyl)ethyl]{3-[(3-methoxyphenyl)methyl](1,2,4-thiadiazol-5-yl)}amine]
35 |  | C (C=10-20 uM) | COc1cccc(Cc2nsc(NCCc3cccc(Cl)c3)n2)c1 [[2-(3-chlorophenyl)ethyl]{3-[(3-methoxyphenyl)methyl](1,2,4-thiadiazol-5-yl)}amine]
36 |  | B (B=1-10 uM) | Cc1ccc(Cc2nsc(NCCc3cccc(Cl)c3)n2)cc1 [[2-(3-chlorophenyl)ethyl]{3-[(4-methylphenyl)methyl](1,2,4-thiadiazol-5-yl)}amine]
37 |  | C (C=10-20 uM) | COc1cccc(Cc2nsc(NCCc3cccc(F)c3)n2)c1 [[2-(3-fluorophenyl)ethyl]{3-[(3-methoxyphenyl)methyl](1,2,4-thiadiazol-5-yl)}amine]
38 |  | D (D=>20 uM) | CC(Cc1ccc(Cl)cc1)Nc1nc(Cc2ccc(F)cc2)ns1 (stereo not drawn) [[2-(4-chlorophenyl)-isopropyl]{3-[(4-fluorophenyl)methyl](1,2,4-thiadiazol-5-yl)}amine]
39 |  | B (B=1-10 uM) | COc1cccc(Cc2nsc(NCCc3ccc(Cl)cc3)n2)c1 [[2-(4-chlorophenyl)ethyl]{3-[(3-methoxyphenyl)methyl](1,2,4-thiadiazol-5-yl)}amine]
40 |  | C (C=10-20 uM) | Clc1ccc(CCNc2nc(Cc3ccc(Cl)cc3)ns2)cc1 [[2-(4-chlorophenyl)ethyl]{3-[(4-chlorophenyl)methyl](1,2,4-thiadiazol-5-yl)}amine]
41 |  | B (B=1-10 uM) | Fc1ccc(Cc2nsc(NCCc3ccc(Cl)cc3)n2)cc1 [[2-(4-chlorophenyl)ethyl]{3-[(4-fluorophenyl)methyl](1,2,4-thiadiazol-5-yl)}amine]
42 |  | A (A=<1 uM) | COc1cccc(Cc2nsc(NCC(C)c3ccc(Cl)cc3)n2)c1 (stereo not drawn) [[2-(4-chlorophenyl)propyl]{3-[(3-methoxyphenyl)methyl](1,2,4-thiadiazol-5-yl)}amine]

— patent US9278962B2 (Cytokinetics, Inc., priority 2011, dated 2016)
